Laboratory results: EP2601945A1 (Thomale, Jürgen, priority 2011, dated 2013)

What was measured:
[1] = type: in vivo, mice
Experimental: Since the protective effect of DPH for the cochlea may be mediated by blocking an ion transporter being relevant for the physiological function of the target cells, an additional experiment was done to verify whether a treatment with DPH alone alters the hearing capability of the mice. For this, five animals measured for their basal auditory sensitivity with the BAER test were treated 24 h later with a single dose of DPH (57 mg/kg), and were re-examined one hour later again by the BAER test.

[2] = test system: Pt-GG adducts in DNA; assay: Immunocytological assay (ICA) of Pt-GG adducts in kidney and cochlea cells after cis-platin treatment; type: in vivo, mice; conditions: cis-platin 12.5 mg/kg single dose; measured 2, 16, 48, 72 h
[3] = cis-platin plus DPH, repetitive treatment

CN(C)CCOC(c1ccccc1)c1ccccc1 [DPH, diphenhydramine]
side effects of prolonged treatment ([1]; DPH alone, up to eight applications): no obvious side effects
general health status versus cis-platin alone group [1, 3]: better
weight loss versus cis-platin alone group [1, 3]: less severe

N.N.[Cl][Pt][Cl] [cis-platin, cis-diaminedichloro-platinum(II)]
time at which Pt-GG levels peaked, OHCs [2]: 16 h
time at which Pt-GG levels peaked, marginal cells [2]: 48 h
